Test systems include NCI-H226; UACC-257; UACC-62; T47D; HOP-62; MDA-MB-435; OVCAR-5; OVCAR-3; SN12C; HCT-15; SW-620; SF-295; A498; OVCAR-4; TK-10; U-251; SK-OV-3; HCT-116; NCI-H460.
Experiment in all cases: growth of human tumour cells (NCI), 48 h

The text below walks through data of ChEMBL document CHEMBL1201862, “PubChem BioAssay data set” (2004).

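1) Cells in 96-well plates. 2) Compound, 48 h, 5 concentrations. 3) Linear interpolation between surrounding doses. 4) Unreached endpoint = highest concentration. At the GI50, growth is halved.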 Calls of active or inactive are those of the source. No stated cut-off is given here; in the data, active = GI50 up to about 1.1 µM and inactive = higher. Square brackets hold non-standard residues; d marks the D form. Peptide text beside a SMILES is read from it. * marks the point of attachment. Tyr(3-Br) = N[C@@H](Cc1ccc(O)c(Br)c1)C(=O)O; Boc = CC(C)(C)OC(=O)* Where only a bound is given, the exact number is not on record here.

`Cn1/c(=N\S(=O)(=O)c2ccccc2)n(S(=O)(=O)c2ccccc2)c2ccccc21`: the GI50 in the experiment with NCI-H226 was 50.2 µM (inactive); in the experiment with UACC-257 it was > 100 µM (inactive); in the experiment on UACC-62, > 100 µM (inactive); in the experiment with T47D, 40.6 µM (inactive); with HOP-62 it was 38.8 µM (inactive); with MDA-MB-435, 58.9 µM (inactive). For the same compound, the GI50 was > 100 µM (inactive) in the experiment with OVCAR-5; 36.2 µM (inactive) in the experiment on OVCAR-3; 87.3 µM (inactive) in the experiment on SN12C; above 100 µM in the experiment on HCT-15; 93.1 µM (inactive) in the experiment with SW-620; 62.1 µM (inactive) in the experiment on SF-295. Moreover, the GI50 is 78.7 µM (inactive) in the experiment with A498; > 100 µM (inactive) in the experiment on OVCAR-4; > 100 µM (inactive) with TK-10; 34.7 µM (inactive) with U-251; > 100 µM (inactive) with SK-OV-3; 48.9 µM (inactive) in the experiment with HCT-116.

`O=C(Nc1nc2ccc([N+](=O)[O-])cc2s1)c1cc([N+](=O)[O-])ccc1Cl`: the GI50 was 1.31 µM (inactive) in the experiment with NCI-H226; 3.23 µM (inactive) in the experiment on UACC-257; 3.57 µM (inactive) in the experiment on T47D; 3 µM (inactive) in the experiment on HOP-62; 4.04 µM (inactive) in the experiment on MDA-MB-435; 4.26 µM (inactive) in the experiment on OVCAR-5. For the same compound, the GI50 was 1.59 µM (inactive) in the experiment on OVCAR-3; 1.52 µM (inactive) with SN12C; 1.93 µM with HCT-15; 2.29 µM (inactive) in the experiment with SW-620; 3.4 µM (inactive) with SF-295; 2.21 µM (inactive) in the experiment with A498. Further, the GI50 with OVCAR-4 was 5.27 µM (inactive); with TK-10, 3.8 µM (inactive); in the experiment on U-251, 2.95 µM (inactive); in the experiment with SK-OV-3, 2.94 µM (inactive); in the experiment with HCT-116, 1.71 µM (inactive).

`COc1cccc(NC(=O)CC(=O)N2N=C(C)C(/N=N/c3ccc(S(=O)(=O)CCOS(=O)(=O)O)cc3)C2=O)c1` (stereo not drawn): the GI50 with NCI-H460 is 4.49 µM (inactive); with NCI-H226 it was 4.66 µM (inactive); with UACC-257, 8.93 µM (inactive); with T47D, 11.4 µM (inactive); with HOP-62, 13 µM (inactive); in the experiment on MDA-MB-435, 2.65 µM (inactive). Besides, the GI50 was 29.3 µM (inactive) in the experiment with OVCAR-5; 4.21 µM (inactive) in the experiment on OVCAR-3; 5.05 µM (inactive) with SN12C; 3.42 µM with HCT-15; 2.99 µM (inactive) in the experiment with SW-620; 15.3 µM (inactive) in the experiment on SF-295. Moreover, the GI50 is 10.8 µM (inactive) with A498; 1.58 µM (inactive) with OVCAR-4; 5.75 µM (inactive) in the experiment with TK-10; 4.89 µM (inactive) with U-251; 3.22 µM (inactive) with HCT-116.

With `Cn1c(=O)c2c(ncn2CCNC(CO)C(O)c2ccc([N+](=O)[O-])cc2)n(C)c1=O` (stereo not drawn), the GI50 with NCI-H460 is > 100 µM (inactive); in the experiment with NCI-H226, > 100 µM (inactive); with UACC-257, > 100 µM (inactive); with UACC-62, > 100 µM (inactive); with T47D, 5.64 µM (inactive); with HOP-62, > 100 µM (inactive). The GI50 in the experiment with MDA-MB-435 is > 100 µM (inactive); in the experiment on OVCAR-3, > 100 µM (inactive); with SN12C, > 100 µM (inactive); with HCT-15, above 100 µM; in the experiment with SW-620, > 10 µM (inactive); with SF-295, > 100 µM (inactive). Moreover, the GI50 in the experiment with A498, in the experiment with OVCAR-4, in the experiment on TK-10, in the experiment on U-251, with SK-OV-3 and in the experiment with HCT-116 was > 100 µM (inactive) each time.

As for `CC(C)(SCc1ccccc1)C(N)C(=O)O` (stereo not drawn), the GI50 with NCI-H460, in the experiment with NCI-H226, in the experiment with UACC-257, in the experiment with UACC-62, in the experiment with T47D and in the experiment on HOP-62 was > 100 µM (inactive) each time. Besides, the GI50 in the experiment with MDA-MB-435 was > 100 µM (inactive); with OVCAR-5 it was > 100 µM (inactive); with OVCAR-3, > 100 µM (inactive); in the experiment with SN12C, > 100 µM (inactive); in the experiment with HCT-15, above 100 µM; in the experiment on SW-620 it was > 100 µM (inactive). Further, the GI50 in the experiment on SF-295, in the experiment on A498, in the experiment on OVCAR-4, in the experiment on TK-10, with U-251 and with HCT-116 was > 100 µM (inactive) in each case.

In the case of `COC(=O)[C@H](Cc1ccc(O)c(Br)c1)NC(=O)[C@H](Cc1ccc(O)cc1)NC(=O)OC(C)(C)C` (Boc-Tyr-[Tyr(3-Br)]-OMe), the GI50 in the experiment with NCI-H460 is 19.2 µM (inactive); in the experiment on NCI-H226, > 100 µM (inactive); in the experiment on UACC-257 it was 43.8 µM (inactive); in the experiment with T47D, 20.8 µM (inactive); with HOP-62, > 100 µM (inactive); with MDA-MB-435, 23 µM (inactive). In addition, the GI50 is > 100 µM (inactive) with OVCAR-5; 20.7 µM (inactive) in the experiment on OVCAR-3; 78.5 µM (inactive) in the experiment with SN12C; 21.6 µM with HCT-15; 42.6 µM (inactive) in the experiment on SW-620; > 100 µM (inactive) in the experiment with SF-295. The GI50 was > 100 µM (inactive) with A498; 29.8 µM (inactive) in the experiment on OVCAR-4; > 100 µM (inactive) in the experiment on TK-10; > 100 µM (inactive) in the experiment with SK-OV-3; 45.6 µM (inactive) in the experiment with HCT-116.

Turning to `C=CCO[C@]1(CC=C)C(=O)C(=O)OC1C1COC(C)(C)O1` (stereo partly drawn), the GI50 with NCI-H460 is 65.2 µM (inactive); in the experiment with NCI-H226, > 100 µM (inactive); in the experiment on UACC-257, 30 µM (inactive); in the experiment with T47D it was 34.8 µM (inactive); in the experiment with HOP-62, > 100 µM (inactive); in the experiment with MDA-MB-435 it was 36 µM (inactive). Further, the GI50 was > 100 µM (inactive) in the experiment on OVCAR-5; 45.7 µM (inactive) in the experiment on OVCAR-3; 34.4 µM (inactive) with SN12C; 21.1 µM in the experiment with HCT-15; 18.6 µM (inactive) in the experiment with SW-620; > 100 µM (inactive) with SF-295. Moreover, the GI50 was > 100 µM (inactive) in the experiment with A498, 72.3 µM (inactive) in the experiment with U-251 and 32 µM (inactive) with HCT-116.

As to `COCOc1ccc(C(=O)Oc2cccc3c2OC(C)(C)O3)c(OCOC)c1`, the GI50 in the experiment with NCI-H460 was 56 µM (inactive); in the experiment with NCI-H226, > 100 µM (inactive); with UACC-257, > 100 µM (inactive); in the experiment on UACC-62, 28.2 µM (inactive); in the experiment on T47D, 37.8 µM (inactive); in the experiment on HOP-62 it was > 100 µM (inactive). For the same compound, the GI50 is 60 µM (inactive) in the experiment on MDA-MB-435; > 100 µM (inactive) with OVCAR-5; > 100 µM (inactive) in the experiment on OVCAR-3; > 100 µM (inactive) with SN12C; 83.4 µM with HCT-15; 43.2 µM (inactive) in the experiment with SW-620. In addition, the GI50 in the experiment with SF-295 was > 100 µM (inactive); in the experiment on A498 it was > 100 µM (inactive); in the experiment with TK-10, > 100 µM (inactive); in the experiment with U-251, 27.9 µM (inactive); with SK-OV-3, > 100 µM (inactive); in the experiment with HCT-116 it was > 100 µM (inactive).
